Tests used:
[1] = tested on: normal NK cells expanded with K562-aAPC; assay: drug sensitivity score (DSS) (DSS units); higher = more sensitive; extreme values may be limits of the assay; conditions: 72 h; IL-2 2.5 ng/mL
Procedure: (§1)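 Drug sensitivity and resistance testing on K562-aAPC-expanded normal NK cells: 5 concentrations (10-fold steps over a 10,000-fold range), 72 h at 37 °C, viability by CellTiter-Glo normalised to DMSO and benzethonium chloride controls; DSS from the fitted curve.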

[2] = tested on: normal NK cells expanded with K562-aAPC; assay: percent inhibition of viability; higher = more inhibition; conditions: 72 h, IL-2 2.5 ng/mL
Procedure: as §1

[3] = tested on: NK-YS (IL-2 2.5 ng/mL); assay: as above; conditions: 72 h
[4] = tested on: normal primary NK cells, pool 1 (3 donors), resting (IL-2 0 ng/mL); assay: as above; conditions: 72 h
[5] = tested on: normal primary NK cells, pool 3 (3 donors) (IL-2 2.5 ng/mL); assay: as above; conditions: 72 h
[6] = tested on: YT (IL-2 2.5 ng/mL); assay: as above; conditions: 72 h
[7] = tested on: normal primary NK cells, pool 2 (3 donors) (IL-2 2.5 ng/mL); assay: as above; conditions: 72 h
[8] = tested on: NKL (IL-2 2.5 ng/mL); assay: as above; conditions: 72 h
[9] = tested on: SNK-6 (IL-2 2.5 ng/mL); assay: as above; conditions: 72 h
[10] = tested on: normal primary NK cells, pool 1 (3 donors) (IL-2 2.5 ng/mL); assay: as above; conditions: 72 h
[11] = tested on: NK-92 (IL-2 2.5 ng/mL); assay: as above; conditions: 72 h
[12] = tested on: KHYG-1 (IL-2 2.5 ng/mL); assay: as above; conditions: 72 h
[13] = tested on: DERL-7 (IL-2 2.5 ng/mL); assay: as above; conditions: 72 h
[14] = tested on: KAI3 (IL-2 2.5 ng/mL); assay: as above; conditions: 72 h
[15] = tested on: IMC-1 (IL-2 20 ng/mL); assay: as above; conditions: 72 h
[16] = tested on: NK-YS (IL-2 2.5 ng/mL); assay: drug sensitivity score (DSS) (DSS units); higher = more sensitive; extreme values may be limits of the assay; conditions: 72 h
[17] = tested on: normal primary NK cells, pool 1 (3 donors), resting (IL-2 0 ng/mL); assay: as above; conditions: 72 h
[18] = tested on: normal primary NK cells, pool 3 (3 donors) (IL-2 2.5 ng/mL); assay: as above; conditions: 72 h
[19] = tested on: YT (IL-2 2.5 ng/mL); assay: as above; conditions: 72 h
[20] = tested on: normal primary NK cells, pool 2 (3 donors) (IL-2 2.5 ng/mL); assay: as above; conditions: 72 h
[21] = tested on: NKL (IL-2 2.5 ng/mL); assay: as above; conditions: 72 h
[22] = tested on: SNK-6 (IL-2 2.5 ng/mL); assay: as above; conditions: 72 h
[23] = tested on: normal primary NK cells, pool 1 (3 donors) (IL-2 2.5 ng/mL); assay: as above; conditions: 72 h
[24] = tested on: NK-92 (IL-2 2.5 ng/mL); assay: as above; conditions: 72 h
[25] = tested on: KHYG-1 (IL-2 2.5 ng/mL); assay: as above; conditions: 72 h
[26] = tested on: DERL-7 (IL-2 2.5 ng/mL); assay: as above; conditions: 72 h
[27] = tested on: KAI3 (IL-2 2.5 ng/mL); assay: as above; conditions: 72 h
[28] = tested on: IMC-1 (IL-2 20 ng/mL); assay: as above; conditions: 72 h

C[C@]12CC[C@H](O)CC1=CC[C@@H]1[C@@H]2CC[C@]2(C)C(c3cccnc3)=CC[C@@H]12 [Abiraterone] (max concentration tested 5000 nM)
Conditions	drug sensitivity score
[1]	0.21
[16]	0.2
[17]	1
[18]	0
[19]	0
[20]	0
[21]	0
[22]	0.89
[23]	0
[24]	3.2
[25]	0
[26]	0
[27]	1.81
[28]	1.72

percent inhibition of viability [%]
Conditions	0.5 nM	5 nM	50 nM	500 nM	5000 nM
[2]	-3.92	-2.08	-4.35	-1.44	15.5
[3]	4.24	-1.71	1.76	0.55	14
[4]	2.81	1.54	10.1	10.2	16.1
[5]	5.18	4.84	1.7	15.9	-1.9
[6]	-0.02	9.21	-0.43	11.5	4.01
[7]	-1.86	7.99	1.79	9.51	6.09
[8]	8.55	9.91	1.09	12.8	9.69
[9]	-4.3	-11.1	-26.2	-25.2	-1.46
[10]	-9.05	-7.76	5.1	-0.54	-7.49
[11]	3.02	0.66	4.19	19.8	18.9
[12]	2.05	18.6	-0.59	2.88	6.94
[13]	-1.84	6.7	-3.24	8.85	-0.3
[14]	4.32	6.7	11.6	12.4	18.3
[15]	-0.05	0.08	1.73	4.6	25.9

OCCn1cc(-c2cnc3nnn(Cc4ccc5ncccc5c4)c3n2)cn1 (max concentration tested 2500 nM)
Conditions	drug sensitivity score
[1]	0.06
[16]	0.5
[17]	0.02
[18]	0
[19]	0.06
[20]	0
[21]	3.7
[22]	0
[23]	0.34
[24]	3.17
[25]	0
[26]	0
[27]	0.81
[28]	0

percent inhibition of viability [%]
Conditions	0.25 nM	2.5 nM	25 nM	250 nM	2500 nM
[2]	-1.81	-5.59	-1.09	4.36	10.7
[3]	-3.62	-4.61	-4.57	1.28	16.9
[4]	-7.9	6.66	4.48	7.02	11.4
[5]	-4.09	3.45	7.9	-5.94	7.18
[6]	-6.67	-5.28	-6.34	-0.92	12.8
[7]	-2.43	3.77	5.1	-2.16	4.71
[8]	-0.17	5.36	16.3	12	17.6
[9]	-14.8	-17.6	-15.8	-7.55	1.66
[10]	-4.03	5.55	18.1	6.24	10.1
[11]	-3.39	13.7	-1.59	11.9	33.2
[12]	-6.94	-4.08	-4.27	1.49	7.29
[13]	-0.9	-0.84	0.34	-3	-8.26
[14]	-0.76	-5.72	5.28	8.13	18.2
[15]	-3.49	3.05	-2.66	5.69	6.58

COc1cc(Nc2c(C#N)cnc3cc(OCCCN4CCN(C)CC4)c(OC)cc23)c(Cl)cc1Cl [Bosutinib] (max concentration tested 10000 nM)
Conditions	drug sensitivity score
[1]	6.07
[16]	5.71
[17]	12.4
[18]	5.14
[19]	7.9
[20]	9.3
[21]	5.43
[22]	4.57
[23]	8.82
[24]	8.9
[25]	9.26
[26]	9.96
[27]	9.81
[28]	4.71

percent inhibition of viability [%]
Conditions	1 nM	10 nM	100 nM	1000 nM	10000 nM
[2]	4.72	2.21	15.7	3.76	99.9
[3]	-4.4	-3.22	-2.75	2.53	96.7
[4]	-6.19	-3.78	1.15	58.5	99.3
[5]	0.05	-0.81	10.8	-5.33	99.8
[6]	1.55	1.24	2.37	15.2	97.2
[7]	-12.2	-5.59	-2.85	25.5	98.1
[8]	-12.2	-8.59	-6.88	0.83	95.5
[9]	6.03	14.6	-18.2	-17.4	99.7
[10]	-9.61	-1.56	4.38	20.6	100
[11]	-0.68	-2.8	-0.62	22.4	97.7
[12]	-3.69	1.01	-1.05	26.2	96.2
[13]	1.55	6.21	8.26	37.4	100
[14]	8.38	12	3.26	31.6	97.2
[15]	-6.46	0.66	-10.5	-9.81	96.6

Cn1cc(CNCC2CCN(c3ncc(C(=O)NO)cn3)CC2)c2ccccc21 [Quisinostat] (max concentration tested 1000 nM)
Conditions	drug sensitivity score
[1]	21.9
[16]	19.7
[17]	28.6
[18]	22.2
[19]	14.3
[20]	25.2
[21]	23.6
[22]	12.2
[23]	24.6
[24]	15.1
[25]	19.9
[26]	23.7
[27]	20.6
[28]	17.2

percent inhibition of viability [%]
Conditions	0.1 nM	1 nM	10 nM	100 nM	1000 nM
[2]	-4.41	2.67	27.3	98.9	99.5
[3]	-1.23	0.57	20.6	92.9	97.7
[4]	-8.56	21.3	79	90.3	90
[5]	-2.24	-1.5	32.9	96.6	97.4
[6]	0.16	-4.15	0.59	77.7	97.8
[7]	-0.78	3.43	67.6	93.8	93.9
[8]	-9.03	-1.25	43.9	99.4	96.7
[9]	1.8	20.8	-18.7	56.4	99.2
[10]	-12.9	4.2	58.6	97.3	96.1
[11]	-10.6	-6.5	15.2	70.9	93.4
[12]	-1.89	-1.8	12.5	99.3	97.8
[13]	4.2	1.75	46.9	99.6	99.1
[14]	-2.72	8.43	36.8	88.8	97.3
[15]	-4.98	-0.52	-8.31	99.6	99.7

COc1cc2ncnc(Oc3cccc(NC(=O)Nc4cc(C(C)(C)C(F)(F)F)on4)c3)c2cc1OC (max concentration tested 10000 nM)
Conditions	drug sensitivity score
[1]	3.18
[16]	1.47
[17]	0
[18]	0
[19]	4.37
[20]	0
[21]	9.3
[22]	0
[23]	0
[24]	2.92
[25]	1.77
[26]	0
[27]	1.44
[28]	0

percent inhibition of viability [%]
Conditions	1 nM	10 nM	100 nM	1000 nM	10000 nM
[2]	-1.51	-5.86	-2.54	20.8	24.9
[3]	-5.12	-3.89	6.64	10.2	22.5
[4]	-30.4	6.49	-14	-6.06	-6.31
[5]	-10.2	8.96	-2.46	-8.5	-3.67
[6]	-6.09	0.07	-0.35	27.3	17.8
[7]	-11.8	4.36	-8.21	-2.04	-8.58
[8]	4.1	2.39	15.8	41.7	42.7
[9]	-21	-20.4	-14.8	-14.3	-12
[10]	-8.45	9.57	-3.9	2.93	0.51
[11]	-0.01	2.35	-2.76	14.8	28.1
[12]	-4.24	2.96	2.93	12.8	22.6
[13]	-5.16	6.23	-3	4.56	-7.99
[14]	0.98	-5.32	2.9	6.52	22.6
[15]	-1.62	-0.53	0.44	-4.34	6.15

— the supplement of paper PMC5908809
